Article PMC10077450 (ACS Omega, 2023)
“Also recorded” adds a separate entry of the source. Marks after values point to notes of the source that are not given here.

What was measured:
[1] = biological target: butyryl cholinesterase (BChE) (Homo sapiens, UniProt P06276); test: butyryl cholinesterase inhibition assay; format: biochemical; settings: for inhibition at 500 µM: read-out: BChE inhibition (%) at 0.5 mM; for activity against BChE enzyme (in words): compared with eserine
α-glucosidase = α-glucosidase (Saccharomyces cerevisiae, UniProt P53341); settings: for activity against α-glucosidase enzyme (in words): compared with acarbose
Chain of α-glucosidase (P53341 whole entry): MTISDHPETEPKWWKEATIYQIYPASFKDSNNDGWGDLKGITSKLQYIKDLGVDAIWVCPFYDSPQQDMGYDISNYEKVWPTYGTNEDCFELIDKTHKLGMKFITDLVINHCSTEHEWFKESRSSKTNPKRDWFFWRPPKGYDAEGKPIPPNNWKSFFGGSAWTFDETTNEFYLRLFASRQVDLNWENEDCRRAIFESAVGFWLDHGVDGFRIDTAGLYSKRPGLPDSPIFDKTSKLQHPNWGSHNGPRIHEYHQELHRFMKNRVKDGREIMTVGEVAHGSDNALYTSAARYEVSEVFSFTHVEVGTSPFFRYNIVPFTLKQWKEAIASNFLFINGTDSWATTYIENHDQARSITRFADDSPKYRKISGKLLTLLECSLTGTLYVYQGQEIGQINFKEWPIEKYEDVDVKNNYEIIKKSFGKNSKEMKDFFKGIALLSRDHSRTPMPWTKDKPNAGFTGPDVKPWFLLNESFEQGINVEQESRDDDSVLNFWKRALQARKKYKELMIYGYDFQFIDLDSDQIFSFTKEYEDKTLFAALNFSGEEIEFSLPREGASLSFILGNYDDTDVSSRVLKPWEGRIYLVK

Chain of butyryl cholinesterase (BChE) (P06276 29-602, species assumed): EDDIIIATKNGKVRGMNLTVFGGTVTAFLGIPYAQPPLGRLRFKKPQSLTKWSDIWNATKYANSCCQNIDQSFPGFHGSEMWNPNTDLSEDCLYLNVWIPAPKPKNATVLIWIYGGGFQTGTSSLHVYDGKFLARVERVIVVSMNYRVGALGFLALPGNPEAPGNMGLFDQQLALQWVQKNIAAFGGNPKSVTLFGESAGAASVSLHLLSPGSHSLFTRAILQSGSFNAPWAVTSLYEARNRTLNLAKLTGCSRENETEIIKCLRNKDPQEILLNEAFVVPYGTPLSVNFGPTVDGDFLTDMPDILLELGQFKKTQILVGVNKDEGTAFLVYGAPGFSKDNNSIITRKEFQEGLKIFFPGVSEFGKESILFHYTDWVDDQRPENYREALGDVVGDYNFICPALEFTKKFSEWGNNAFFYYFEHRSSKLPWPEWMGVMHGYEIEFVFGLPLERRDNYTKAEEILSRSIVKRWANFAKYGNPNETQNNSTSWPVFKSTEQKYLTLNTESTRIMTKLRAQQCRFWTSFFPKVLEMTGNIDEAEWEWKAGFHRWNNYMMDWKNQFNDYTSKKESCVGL

SMILES | inhibition at 500 µM [1] [%] | activity against α-glucosidase enzyme (in words) (α-glucosidase) | IC50 [1] [µM] | activity against BChE enzyme (in words) [1] | α-glucosidase inhibition (%) at 0.5 mM (α-glucosidase; 0.5 mM, mean ± SEM, triplicate)
O=C(CSc1nnc(C2CCCN(S(=O)(=O)c3ccccc3)C2)o1)NC1CCCCC1 (stereo not shown) [7p, N-Cyclohexyl-2-{5-[1-(phenylsulfonyl)piperidin-3-yl]-1,3,4-oxadiazol-2-ylthio}acetamide] | 26.5 ± 0.39 | least activity |  |  | 
COc1ccc(Cl)cc1NC(=O)CSc1nnc(C2CCCN(S(=O)(=O)c3ccccc3)C2)o1 (stereo not shown) [7i, N-(5-Chloro-2-methoxyphenyl)-2-{5-[1-(phenylsulfonyl)piperidin-3-yl]-1,3,4-oxadiazol-2-ylthio}acetamide] | 38.81 ± 0.17 | second most active |  |  | 
CCc1cccc(C)c1NC(=O)CSc1nnc(C2CCCN(S(=O)(=O)c3ccccc3)C2)o1 (stereo not shown) [7o, N-(2-Ethyl-6-methylphenyl)-2-{5-[1-(phenylsulfonyl)piperidin-3-yl]-1,3,4-oxadiazol-2-ylthio}acetamide] | 38.31 ± 0.29 |  |  |  | 
Cc1cc(C)cc(NC(=O)CSc2nnc(C3CCCN(S(=O)(=O)c4ccccc4)C3)o2)c1 (stereo not shown) [7e, N-(3,5-Dimethylphenyl)-2-{5-[1-(phenylsulfonyl)piperidin-3-yl]-1,3,4-oxadiazol-2-ylthio}acetamide] | 66.82 ± 0.32 | most active; also recorded: comparable activity to that of reference | 375.4 ± 0.12 | least active; also recorded: BChE inhibitors | 
Cc1cccc([N+](=O)[O-])c1NC(=O)CSc1nnc(C2CCCN(S(=O)(=O)c3ccccc3)C2)o1 (stereo not shown) [7s, N-(2-Methyl-6-nitrophenyl)-2-{5-[1-(phenylsulfonyl)piperidin-3-yl]-1,3,4-oxadiazol-2-ylthio}acetamide] | 67.19 ± 0.39 |  | 123.3 ± 0.15 | moderately high inhibition potential | 
CCOc1ccccc1NC(=O)CSc1nnc(C2CCCN(S(=O)(=O)c3ccccc3)C2)o1 (stereo not shown) [7n, N-(2-Ethoxyphenyl)-2-{5-[1-(phenylsulfonyl)piperidin-3-yl]-1,3,4-oxadiazol-2-ylthio}acetamide] | 43.72 ± 0.15 |  |  |  | 
C[C@H]1O[C@H](O[C@H]2[C@H](O)[C@@H](O)[C@@H](O[C@H]3[C@H](O)[C@@H](O)C(O)O[C@@H]3CO)O[C@@H]2CO)[C@H](O)[C@@H](O)[C@@H]1N[C@H]1C=C(CO)[C@@H](O)[C@H](O)[C@H]1O (stereo partly shown) [acarbose, reference compound] |  |  |  |  | 92.23±0.14^a %
CCc1ccc(NC(=O)CSc2nnc(C3CCCN(S(=O)(=O)c4ccccc4)C3)o2)cc1 (stereo not shown) [7l, N-(4-Ethylphenyl)-2-{5-[1-(phenylsulfonyl)piperidin-3-yl]-1,3,4-oxadiazol-2-ylthio}acetamide] | 93.71 ± 0.28 |  | 274.6 ± 0.13 | least active; also recorded: BChE inhibitors | 
CCc1ccccc1NC(=O)CSc1nnc(C2CCCN(S(=O)(=O)c3ccccc3)C2)o1 (stereo not shown) [7k, N-(2-Ethylphenyl)-2-{5-[1-(phenylsulfonyl)piperidin-3-yl]-1,3,4-oxadiazol-2-ylthio}acetamide] | 44.24 ± 0.32 | least activity |  |  | 
Cc1ccc(NC(=O)CSc2nnc(C3CCCN(S(=O)(=O)c4ccccc4)C3)o2)cc1 (stereo not shown) [7g, 2-{5-[1-(Phenylsulfonyl)piperidin-3-yl]-1,3,4-oxadiazol-2-ylthio}-N-p-tolylacetamide] | 46.75 ± 0.18 |  |  |  | 
Cc1ccc(NC(=O)CSc2nnc(C3CCCN(S(=O)(=O)c4ccccc4)C3)o2)c(C)c1 (stereo not shown) [7b, N-(2,4-Dimethylphenyl)-2-{5-[1-(phenylsulfonyl)piperidin-3-yl]-1,3,4-oxadiazol-2-ylthio}acetamide] | 76.51 ± 0.44 |  | 283.3 ± 0.17 | least active; also recorded: BChE inhibitors | 
Cc1cccc(C)c1NC(=O)CSc1nnc(C2CCCN(S(=O)(=O)c3ccccc3)C2)o1 (stereo not shown) [7d, N-(2,6-Dimethylphenyl)-2-{5-[1-(phenylsulfonyl)piperidin-3-yl]-1,3,4-oxadiazol-2-ylthio}acetamide] | 48.51 ± 0.15 | least activity |  |  | 
Cc1ccc(C)c(NC(=O)CSc2nnc(C3CCCN(S(=O)(=O)c4ccccc4)C3)o2)c1 (stereo not shown) [7c, N-(2,5-Dimethylphenyl)-2-{5-[1-(phenylsulfonyl)piperidin-3-yl]-1,3,4-oxadiazol-2-ylthio}acetamide] | 40.76 ± 0.27 |  |  |  | 
Cc1ccccc1NC(=O)CSc1nnc(C2CCCN(S(=O)(=O)c3ccccc3)C2)o1 (stereo not shown) [7f, 2-{5-[1-(Phenylsulfonyl)piperidin-3-yl]-1,3,4-oxadiazol-2-ylthio}-N-o-tolylacetamide] | 47.23 ± 0.14 |  |  |  | 
O=C(CSc1nnc(C2CCCN(S(=O)(=O)c3ccccc3)C2)o1)NCCc1ccccc1 (stereo not shown) [7j, N-Phenethyl-2-{5-[1-(phenylsulfonyl)piperidin-3-yl]-1,3,4-oxadiazol-2-ylthio}acetamide] | 97.93 ± 0.38 |  | 12.15 ± 0.09 | highest inhibition potential; also recorded: most active | 
CCOc1ccc(NC(=O)CSc2nnc(C3CCCN(S(=O)(=O)c4ccccc4)C3)o2)cc1 (stereo not shown) [7m, N-(4-Ethoxyphenyl)-2-{5-[1-(phenylsulfonyl)piperidin-3-yl]-1,3,4-oxadiazol-2-ylthio}acetamide] | 72.41 ± 0.17 |  | 328.1 ± 0.18 | least active; also recorded: BChE inhibitors | 
COc1ccccc1NC(=O)CSc1nnc(C2CCCN(S(=O)(=O)c3ccccc3)C2)o1 (stereo not shown) [7q, N-(2-Methoxyphenyl)-2-{5-[1-(phenylsulfonyl)piperidin-3-yl]-1,3,4-oxadiazol-2-ylthio}acetamide] | 36.32 ± 0.16 |  |  |  | 
Cc1cccc(NC(=O)CSc2nnc(C3CCCN(S(=O)(=O)c4ccccc4)C3)o2)c1C (stereo not shown) [7a, N-(2,3-Dimethylphenyl)-2-{5-[1-(phenylsulfonyl)piperidin-3-yl]-1,3,4-oxadiazol-2-ylthio}acetamide] | 75.32 ± 0.35 |  | 284.5 ± 0.13 | least active; also recorded: BChE inhibitors | 
O=C(CSc1nnc(C2CCCN(S(=O)(=O)c3ccccc3)C2)o1)NCc1ccccc1 (stereo not shown) [7r, N-Benzyl-2-{5-[1-(phenylsulfonyl)piperidin-3-yl]-1,3,4-oxadiazol-2-ylthio}acetamide] | 37.7 ± 0.48 | least activity |  |  | 
COC(=O)c1ccccc1NC(=O)CSc1nnc(C2CCCN(S(=O)(=O)c3ccccc3)C2)o1 (stereo not shown) [7h, Methyl 2-(2-(5-(1-(Phenylsulfonyl)piperidin-3-yl)-1,3,4-oxadiazol-2-ylthio)acetamido)benzoate] | 35.52 ± 0.23 |  |  |  | 
